In ChEMBL document CHEMBL3885881, “DrugMatrix”:

Organism: Rattus norvegicus
Assay: DrugMatrix - Regimen: Daily Repeat
Type: toxicity, organism-based, Sprague-Dawley
Parameters: regimen Daily Repeat, gender Male, age 6-8 weeks
Conditions: in vivo, po, route oral GAVAGE, vehicle 100 % WATER; for ABSOLUTE BASOPHIL / ABSOLUTE EOSINOPHIL / ABSOLUTE LYMPHOCYTE / ABSOLUTE MONOCYTE / ABSOLUTE SEGMENTED NEUTROPHIL / BASOPHIL / EOSINOPHIL / ERYTHROCYTE COUNT / HEMATOCRIT / HEMOGLOBIN / LEUKOCYTE COUNT / LYMPHOCYTE / MEAN CORPUSCULAR HEMOGLOBIN / MEAN CORPUSCULAR HEMOGLOBIN CONCENTRATION / NEUTROPHIL / NUCLEATED RED BLOOD CELLS / PLATELET COUNT: tissue Blood; for ALANINE AMINOTRANSFERASE / ALBUMIN / ALKALINE PHOSPHATASE / ASPARTATE AMINOTRANSFERASE / BLOOD UREA NITROGEN / CARBON DIOXIDE / CHLORIDE / CHOLESTEROL / CREATINE PHOSPHOKINASE / CREATININE / GLUCOSE / LACTATE DEHYDROGENASE / LIPASE / PHOSPHORUS / POTASSIUM / SODIUM / TOTAL BILIRUBIN / TOTAL PROTEIN / URIC ACID: tissue Plasma
[1] = 94 mg/kg, 120 h, dose level High, time 5 day
[2] = […], 72 h, dose 2.3 mg/Kg, dose level Low, time 3 day
[3] = […], 120 h, dose 2.3 mg/Kg, dose level Low, time 5 day

CN1[C@@H]2CC[C@H]1C[C@@H](OC(=O)C(CO)c1ccccc1)C2 (stereo partly drawn) [ATROPINE]
ABSOLUTE BASOPHIL [1]: 0 CELLS/uL
ABSOLUTE EOSINOPHIL [1]: 26.33 CELLS/uL
ABSOLUTE LYMPHOCYTE [1]: 8136 CELLS/uL
ABSOLUTE MONOCYTE [1]: 82.33 CELLS/uL
ABSOLUTE SEGMENTED NEUTROPHIL [1]: 555.33 CELLS/uL
BASOPHIL [1]: 0%
EOSINOPHIL [1]: 0.33%
ERYTHROCYTE COUNT [1]: 5.33 x10E6/uL
HEMATOCRIT [1]: 35.2%
HEMOGLOBIN [1]: 13.4 G/DL
LEUKOCYTE COUNT [1]: 8.8 x10E3/uL
LYMPHOCYTE [1]: 92.33%
MEAN CORPUSCULAR HEMOGLOBIN [1]: 25.13 pg
MEAN CORPUSCULAR HEMOGLOBIN CONCENTRATION [1]: 38.07 G/DL
NEUTROPHIL [1]: 6.33%
NUCLEATED RED BLOOD CELLS [1]: 0.33 /100WBC
PLATELET COUNT [1]: 1133.67 x10E3/uL
ALANINE AMINOTRANSFERASE [1]: 73.67 u/L
ALBUMIN [1]: 4.13 G/DL
ALKALINE PHOSPHATASE [1]: 335 u/L
ASPARTATE AMINOTRANSFERASE [1]: 106.67 u/L
BLOOD UREA NITROGEN [1]: 13 mg/dL
CARBON DIOXIDE [1]: 32 mmol/L
CHLORIDE [1]: 99.67 MEQ/L
CHOLESTEROL [1]: 52.33 mg/dL
CREATINE PHOSPHOKINASE [1]: 367.67 u/L
CREATININE [1]: 0.1 mg/dL
GLUCOSE [1]: 155 mg/dL
LACTATE DEHYDROGENASE [1]: 214.33 u/L
LIPASE [1]: 11 u/L
PHOSPHORUS [1]: 9.67 mg/dL
POTASSIUM [1]: 5.56 MEQ/L
SODIUM [1]: 143.2 MEQ/L
TOTAL BILIRUBIN [1]: 0.17 mg/dL
TOTAL PROTEIN [1]: 6.03 G/DL
URIC ACID [1]: 0.37 mg/dL
ABSOLUTE BASOPHIL [2]: 0 CELLS/uL
ABSOLUTE EOSINOPHIL [2]: 0 CELLS/uL
ABSOLUTE LYMPHOCYTE [2]: 12169.33 CELLS/uL
ABSOLUTE MONOCYTE [2]: 203.67 CELLS/uL
ABSOLUTE SEGMENTED NEUTROPHIL [2]: 1660.33 CELLS/uL
BASOPHIL [2]: 0%
EOSINOPHIL [2]: 0%
ERYTHROCYTE COUNT [2]: 5.43 x10E6/uL
HEMATOCRIT [2]: 34.63%
HEMOGLOBIN [2]: 13.57 G/DL
LEUKOCYTE COUNT [2]: 14.03 x10E3/uL
LYMPHOCYTE [2]: 88%
MEAN CORPUSCULAR HEMOGLOBIN [2]: 25 pg
MEAN CORPUSCULAR HEMOGLOBIN CONCENTRATION [2]: 39.17 G/DL
NEUTROPHIL [2]: 10.67%
NUCLEATED RED BLOOD CELLS [2]: 0 /100WBC
PLATELET COUNT [2]: 1077.33 x10E3/uL
ALANINE AMINOTRANSFERASE [2]: 49 u/L
ALBUMIN [2]: 3.93 G/DL
ALKALINE PHOSPHATASE [2]: 305.33 u/L
ASPARTATE AMINOTRANSFERASE [2]: 82.67 u/L
BLOOD UREA NITROGEN [2]: 10.67 mg/dL
CARBON DIOXIDE [2]: 28.67 mmol/L
CHLORIDE [2]: 99.33 MEQ/L
CHOLESTEROL [2]: 68.67 mg/dL
CREATINE PHOSPHOKINASE [2]: 256.67 u/L
CREATININE [2]: 0.1 mg/dL
GLUCOSE [2]: 142.67 mg/dL
LACTATE DEHYDROGENASE [2]: 161 u/L
LIPASE [2]: 9.33 u/L
PHOSPHORUS [2]: 10.27 mg/dL
POTASSIUM [2]: 6.48 MEQ/L
SODIUM [2]: 141.6 MEQ/L
TOTAL BILIRUBIN [2]: 0.27 mg/dL
TOTAL PROTEIN [2]: 5.63 G/DL
URIC ACID [2]: 0.97 mg/dL
ABSOLUTE BASOPHIL [3]: 0 CELLS/uL
ABSOLUTE EOSINOPHIL [3]: 0 CELLS/uL
ABSOLUTE LYMPHOCYTE [3]: 8930.67 CELLS/uL
ABSOLUTE MONOCYTE [3]: 135.33 CELLS/uL
ABSOLUTE SEGMENTED NEUTROPHIL [3]: 600.67 CELLS/uL
BASOPHIL [3]: 0%
EOSINOPHIL [3]: 0%
ERYTHROCYTE COUNT [3]: 5.39 x10E6/uL
HEMATOCRIT [3]: 35.13%
HEMOGLOBIN [3]: 13.5 G/DL
LEUKOCYTE COUNT [3]: 9.67 x10E3/uL
LYMPHOCYTE [3]: 93%
MEAN CORPUSCULAR HEMOGLOBIN [3]: 25.07 pg
MEAN CORPUSCULAR HEMOGLOBIN CONCENTRATION [3]: 38.43 G/DL
NEUTROPHIL [3]: 6%
NUCLEATED RED BLOOD CELLS [3]: 0 /100WBC
PLATELET COUNT [3]: 1298.67 x10E3/uL
ALANINE AMINOTRANSFERASE [3]: 55.33 u/L
ALBUMIN [3]: 4.07 G/DL
ALKALINE PHOSPHATASE [3]: 274 u/L
ASPARTATE AMINOTRANSFERASE [3]: 83 u/L
BLOOD UREA NITROGEN [3]: 13.67 mg/dL
CARBON DIOXIDE [3]: 34.67 mmol/L
CHLORIDE [3]: 98.33 MEQ/L
CHOLESTEROL [3]: 64.67 mg/dL
CREATINE PHOSPHOKINASE [3]: 318.67 u/L
CREATININE [3]: 0.12 mg/dL
GLUCOSE [3]: 137.67 mg/dL
LACTATE DEHYDROGENASE [3]: 169.67 u/L
LIPASE [3]: 12.33 u/L
PHOSPHORUS [3]: 10 mg/dL
POTASSIUM [3]: 5.77 MEQ/L
SODIUM [3]: 144.13 MEQ/L
TOTAL BILIRUBIN [3]: 0.2 mg/dL
TOTAL PROTEIN [3]: 6.23 G/DL
URIC ACID [3]: 0.37 mg/dL
